# Results reported in patent publication US12390487B2, “Antiseptic skin prep composition” (Solventum Intellectual Properties Company, priority 2019, dated 2025).
# Test: Solubility of dye in alcohol systems
# Format: physicochemical
# Source text: It was observed that, Ponceau 4R Dye precipitated on the second day. The others (Brilliant Blue, D&C Green, Carmoisine) were stable over 30 days at room temperature with no precipitation observed. PVPK 120 postpones the precipitation of anionic dyes with CHG to various degrees. It was observed that the azo dye structure with 3 sulphonate groups precipitated out of solution quicker.
structure (smiles),measurement,value
O=C1OC2(c3ccccc31)c1cc(I)c(O)c(I)c1Oc1c2cc(I)c(O)c1I [Erythrosine],Solubility in alcohol systems,good solubility
